Patent publication US20250129146A1, “COMBINED CANCER THERAPY WITH AN EPITHELIAL CELL ADHESION MOLECULE (EPCAM) INHIBITOR AND A WNT INHIBITOR” (ACADEMIA SINICA, priority 2021, published 2025)
Entries after “also recorded” stand apart in the source; their conditions may differ.

Key:
HCT116 cells [1] = assay: Metastatic animal model of human CRC (HCT116 cells via tail vein); type: in vivo, NOD/SCID mice
Method: (§1) All animal experiments were approved and performed according to the regulations from the IACUC at Academia Sinica. HCT116 cells (1×10^6) were injected via tail vein for the metastatic model. Otherwise, 2×10^5 HCT116 cells with luciferase were surgically transplanted into the cecum wall for the orthotopic model. Male NOD/SCID mice, approximately 6 to 8 weeks old, were used for animal experiments (n=5 and n=6 for each treatment group in metastatic and orthotopic models respectively). At 72-h post-injection/transplantation, mice were randomly distributed into four different treatment groups. For the treatments, animals were injected with 20 mg/kg IgG or EpAb2-6 via tail vein twice a week for four weeks, or fed by oral gavage with either vehicle [0.5% methylcellulose (Sigma-Aldrich) and 0.5% Tween80 (Sigma-Aldrich)] or 5 mg/kg LGK974 (MedChemExpress) formulated with the vehicle on alternating days for four weeks, or animals were treated with the combination of both inhibitor and antibody. For the metastatic model, survival was the main endpoint. For the orthotopic model, tumor progression was monitor using bioluminescence imaging. To image the tumors, intraperitoneal injection of D-Luciferin (GOLD BIO) was performed, and images were taken 10 min post-injection.

HT29 and SW620 cells = assay: Colony formation assay; type: cell-based, human
Method: Cells were seeded in 12-well plate (5×10^3 cells per well) and treated with 20 µg/mL mEpAb2-6, hEpAb2-6 or MT201 (Produced in house) or 400 ng/mL LGK974 (MedChemExpress) or combination as indicated in which case the elements were directly added to the culture medium. The medium along with the treatment component were changed in every alternating day and the cells were allowed to grow for 10 days. On the tenth day, cells were washed and fixed with 4% paraformaldehyde and further stained with 1% crystal violet for 30 min. Colonies were washed 3 times with PBS, and images were taken. Furthermore, to measure colony density, the wells were incubated with 0.5% SDS shaking for 2 h at RT. The supernatants were collected, and the absorbance of the solution was taken at 570 nm using a microplate reader.

Oct4, Sox2 and c-Myc = assay: Stemness (pluripotency) factor expression (western blot, qPCR); type: cell-based, human; conditions: HT29 cells; LGK974, EpAb2-6 or combined treatment
Method: (§2) For western blotting, cells were extracted using radioimmunoprecipitation assay (RIPA) buffer [(0.01 M sodium phosphate, pH 7.2), 150 mM NaCl, 2 mM EDTA, 50 mM NaF, 1% Nonidet P-40, 1% sodium deoxycholate, and 0.1% SDS)] containing phosphatase inhibitor (Roche) and protease inhibitor (Roche) cocktail. Equal amounts of protein were separated by SDS-PAGE and then transferred to PVDF membranes. The membranes were blocked with 3% BSA in TBST (Blocking solution) and incubated with necessary primary antibodies in the blocking solution overnight at 4° C. Membranes were then incubated with HRP-conjugated secondary antibodies in the blocking solution for 1 h at room temperature, and protein expression were detected. Antibodies used: anti-α-tubulin (Sigma), anti-EpCAM (abeam), anti-Active β-Catenin (Millipore), anti-total β-Catenin (abeam), anti-Frizzled 6 (CST), anti-Frizzled 7 (Santa Cruz Biotech), anti-LRP5 (abcam), anti-Phospho-LRP5 (abcam), anti-Phospho-LRP6 (CST), anti-LRP6 (CST) and anti-EpEX antibody EpAb3-5 (Produced in house), anti-ADAM17 (abcam), anti-phopho-ADAM17 (abcam), anti-Presenilin2 (abcam), anti-phospho-Presenilin2 (S327) (abcam), anti-phospho-Presenilin2 (S330) (abcam) and anti-Axin2 (CST).
(§3) Total RNA was extracted using TRI reagent and 5 μg of the total RNA was further reverse-transcribed using oligo (dT) primer with reverse transcriptase. Quantitative real time RT-PCR (qPCR) was performed on cDNA using the Light Cycler 480 SYBR Green-I Master kit and the LightCycler480 System. The gene expression levels of each sample were normalized to the expression levels of glyceraldehyde 3-phosphate dehydrogenase (GAPDH) or β-actin.

HCT116 cells [2] = assay: Orthotopic animal model of human CRC (HCT116 cells with luciferase in cecum wall); type: in vivo, NOD/SCID mice
Method: as §1

LRP5/6 = assay: Phosphorylation of LRP5/6 (western blot); type: cell-based, human; conditions: SW620 cells; LGK974, EpAb2-6 or combined treatment
Method: as §2

[3] = tested on: HCT116, HT29 and SW620 cells; assay: Tumorsphere assay; type: cell-based, human
Method: Cells were seeded in ultra-low adherent 6-well plates (5×10^4 cells per well) or 24-well plates (1×10^3 cells per well) and maintained in DMEM/F-12 supplemented with B27. Further, cells were treated with 20 μg/mL mEpAb2-6, hEpAb2-6 or MT201 (Produced in house), or 400 ng/mL LGK974 (MedChemExpress) or the combination, by direct addition to the culture medium. The entire culture medium, including the treatment component, was changed in every other day. Cells were cultured for 10 days, and on 10th day, spheres were counted and photographed under the microscope.

[4] = tested on: Wnt receptors (FZD6/7, LRP5/6); assay: Wnt receptor protein and mRNA expression (western blot, qPCR); type: cell-based, human; conditions: HCT116 cells; EpAb2-6, LGK974 or combination
Method: as §2, §3

active β-Catenin = assay: Nuclear translocation of β-Catenin (immunofluorescence staining; cell fractionation with western blot); type: cell-based, human; conditions: wild-type HCT116 cells; 20 μg/mL EpAb2-6 for 6 h, 400 ng/mL LGK974 for 9 h or combination
Method: Cells (1×10^6) were seeded overnight and further allowed to grow in serum free conditions. Then cells were further treated with 20 μg/mL mEpAb2-6 or hEpAb2-6 or MT201 for 6 h or with 400 ng/mL LGK974 (MedChemExpress) for 9 h or combination as indicated. Samples were fractioned into cytosol and nuclear extracts using nuclear/cytosol fractionation kit (Biovision) according to the manufacturer's protocol. The fractions were then subjected to western blot analysis.
as §2
Glass slides were used in 24-well plates and coated with 0.1% gelatin. Further, 3×10^4 cells were seeded in serum free medium overnight. Cells were treated with 20 μg/mL EpAb2-6 for 6 h, or 400 ng/mL LGK974 (MedChemExpress) for 9 h or the combination. Cells were washed using ice-cold PBS and fixed with 4% paraformaldehyde for 15 min at RT and washed with ice-cold PBS. Further, cells were permeabilized using 0.1% triton-X in PBS for 20 min and subsequently washed with PBS. Cells were blocked with 3% BSA in PBS for 1 h at RT. Next, cells were treated with primary antibody anti-Active β-Catenin (Millipore) overnight. Then, cells were washed and treated with secondary antibody in 3% BSA containing PBS along with DAPI for 1 h at RT. Samples were then washed in PBS five times and mounted for microscopy. Nuclear β-Catenin intensities were calculated using IMARIS (Oxford Instruments) software.

[5] = tested on: colon cancer cells (SW620, HCT116); assay: Annexin-V/PI apoptosis assay; type: cell-based, human; conditions: SW620 and HCT116 cells; 20 μg/mL EpAb2-6, LGK974 or the combination for 24 hrs
Method: Cells were seeded in 24-well plate ([…] cells per well) overnight and then treated with 20 μg/mL mEpAb2-6, hEpAb2-6 or MT201, or […] LGK974 (MedChemExpress) or the combination for 24 hrs. Cell pellets were collected, and an apoptosis assay was performed using an Annexin-V/PI apoptosis kit (BD Biosciences). Results were read by flow cytometry analysis percentage apoptotic cells was calculated.

[6] = dose of 5 mg/kg body weight; cited from earlier work
[7] = EpCAM-knockout cells, exogenous EpEX, LGK974 or both

Structure (SMILES): Cc1cc(-c2ncc(CC(=O)Nc3ccc(-c4cnccn4)cn3)cc2C)ccn1 [LGK974, 2-(2′,3-dimethyl-[2,4′-bipyridin]-5-yl)-N-(5-(pyrazin-2-yl)pyridin-2-yl)acetamide, reference compound]
- animal survival (HCT116 cells [1]; 20 mg/kg EpAb2-6 via tail vein twice a week, 5 mg/kg LGK974 oral gavage on alternating days, four weeks): decreased overall survival
- distant metastases (HCT116 cells [1]; autopsies): distinct metastases; also recorded: found to have distant metastases
- colony formation (HT29 and SW620 cells; [7]): complete loss of ability to form spheres or colonies
- colony formation (HT29 and SW620 cells; HT29 cells, 20 µg/mL EpAb2-6, 400 ng/mL LGK974 or combination, 10 days): decreased
- expression of pluripotency factors (Oct4, Sox2 and c-Myc): decreased pluripotency factor expressions
- body weight after cessation of treatment (HCT116 cells [2]; orthotopic model): continued to lose body weight
- median / overall survival (HCT116 cells [2]; orthotopic model): low median survival
- body weight during the treatment period (HCT116 cells [2]; orthotopic model, 5 mg/kg LGK974): decreased during the treatment period
- tumor progression (bioluminescence) (HCT116 cells [2]; orthotopic model, 20 mg/kg EpAb2-6 via tail vein twice a week, 5 mg/kg LGK974 oral gavage on alternating days, four weeks): developed significant tumors
- tumor (cancer) progression in animal models (HCT116 cells [2]; summary statement, metastatic and orthotopic animal models of human CRC): did not observe significant effects
- LRP5/6 phosphorylation (LRP5/6): could decrease LRP5/6 phosphorylation
- tumorsphere formation [3, 7]: complete loss of ability to form spheres or colonies
- tumorsphere formation ([3]; HCT116 and HT29 cells, 20 μg/mL EpAb2-6, 400 ng/mL LGK974 or combination, 10 days): decreased
- cancer stemness properties ([3]; summary statement, CRC cells, tumorsphere and colony formation): partially attenuate cancer sternness properties
- expression of Wnt receptors [4]: partially decrease
- nuclear β-Catenin (active β-Catenin): decreased nuclear D3-Catenin but did not completely clear the protein from the nucleus
- induction of apoptosis [5]: did not observe significant effects
- toxicity [6]: non-toxic
